In patent publication US20230212164A1, “ANNULATED 2-AMINO-3-CYANO THIOPHENES AND DERIVATIVES FOR THE TREATMENT OF CANCER” (BOEHRINGER INGELHEIM INTERNATIONAL GMBH, priority 2020, published 2023):

Tests used:
[1] = molecular target: T1, protein-protein interaction between SOS1 and KRAS G12C (Homo sapiens, UniProt P01116, C118S/C51S/C80L/G12C); assay: KRAS::SOS1 AlphaScreen binding assay
T1 construct: His6 (N)
Method: KRAS::SOS1 AlphaScreen Binding Assay
Assay buffer: • 1×PBS • 0.1% BSA • 0.05% Tween 20
AlphaLISA Glutathione Acceptor Beads and AlphaScreen Streptavidin Donor Beads are mixed in assay buffer at a concentration of 10 μg/mL (final assay concentration) each prior to use and kept at room temperature.
Compounds are diluted to a final start concentration of 100 μM and are tested in duplicate. […] For compound a start concentration of 100 μM, 150 nL of compound solution is transferred per well in 11 concentrations in duplicate with serial 1:5 dilutions.
The assay is run using a fully automated robotic system in a darkened room below 100 Lux. 10 μL of KRAS::SOS1 GDP mix is added into columns 1-24 to the 150 nL of compound solution (final dilution in the assay 1:100, final DMSO concentration 1%).
After 30 minutes incubation time 5 μL of bead mix is added into columns 1-23. Plates are kept at room temperature in a darkened incubator. After further 60 minutes incubation, the signal is measured using a PerkinElmer Envision HTS Multilabel Reader using the AlphaScreen specifications from PerkinElmer. Each plate contains the following controls: • diluted DMSO+KRAS::SOS1 GDP mix+bead mix • diluted DMSO+KRAS::SOS1 GDP mix
IC50 values are calculated and analyzed using a 4 parametric logistic model.

[2] = tested on: pERK (Thr202/Tyr204) in NCI-H358_Cas9_SOS2 (SOS2 knocked); assay: ERK phosphorylation assay 2 (AlphaLISA SureFire Ultra p-ERK1/2); details: read-out: IC50 H358 pERK, ERK phosphorylation assay 2 (values marked with *)
Method: ERK Phosphorylation Assay
Low IC50 values in this assay setting are indicative of high potency of the compounds according to the invention.
GFP positive cells were collected and further expanded. These GFP-positive cell pools were single-cell diluted and SOS2 knock-out clones were identified via Western-blot and genomic DNA sequencing analysis.
Materials Used for the Assay:
(§1) AlphaLISA SureFire Ultra p-ERK1/2 (Thr202/Tyr204) Assay Kit (ALSU-PERK-A500)
Cells are seeded at 40,000 cells per well in /60 μL of RPMI with 10% FBS, non-essential amino acids, pyruvate and glutamax in Greiner TC 384 plates. The cells are incubated for 1 h at room temperature and then incubated overnight in an incubator at 37° C. and 5% CO2 in a humidified atmosphere. 60 nL compound solution (10 mM DMSO stock solution) is then added using a Labcyte Echo 550 device. After a 1 h incubation in the aforementioned incubator the medium is removed after centrifugation and the cells lysed by addition of 20 μL of 1.6-fold lysis buffer from the AlphaLISA SureFire Ultra pERK1/2 (Thr202/Tyr204) Assay Kit with added protease inhibitors, 100 nM trametinib+100 nM staurosporine. After 20 minutes of incubation at room temperature with shaking, 6 μL of each lysate sample is transferred to a 384-well Proxiplate and analyzed for pERK (Thr202/Tyr204) with the AlphaLISA SureFire Ultra pERK1/2 (Thr202/Tyr204) Assay Kit. 3 μL Acceptor Mix and 3 μL Donor Mix are added under subdued light and incubated for 2 h at room temperature in the dark, before the signal is measured on a PerkinElmer Envision HTS Multilabel Reader. The raw data were imported into and analyzed with the Boehringer Ingelheim proprietary software MegaLab (curve fitting based on the program PRISM, GraphPad Inc.).

[3] = molecular target: KRASG12-dependent Ba/F3 cells (Homo sapiens, UniProt P01116, G12C, cells depend on it); assay: Ba/F3 cell model proliferation assay (AlamarBlue, 72 h); type: cell-based; details: Ba/F3 cells transduced with KRASG12C, read-out: IC50 Ba/F3 KRASG12C
Method: Ba/F3 Cell Model Generation and Proliferation Assay
Plasmids containing KRASG12 mutants were obtained from GeneScript. To generate KRASG12-dependent Ba/F3 models, Ba/F3 cells were transduced with retroviruses containing vectors that harbor KRASG12 isoforms. Platinum-E cells (Cell Biolabs) were used for retrovirus packaging. Retrovirus was added to Ba/F3 cells. To ensure infection, 4 μg/mL polybrene was added and cells were spinfected. […] Cells with an infection efficiency of 10% to 20% were further cultivated and puromycin selection with 1 μg/mL was initiated. As a control, parental Ba/F3 cells were used to show selection status. Selection was considered successful when parental Ba/F3 cells cultures died. To evaluate the transforming potential of KRASG12 mutations, the growth medium was no longer supplemented with IL-3. Ba/F3 cells harboring the empty vector were used as a control. Approximately ten days before conducting the experiments, puromycin was left out.
All treatments were performed in technical duplicates. The assay is run using a fully automated robotic system. Treated cells were incubated for 72 h at 37° C. with 5% CO2.
AlamarBlue™ (ThermoFisher), a viability stain, was added and fluorescence measured in the PerkinElmer Envision HTS Multilabel Reader.

[4] = tested on: pERK (Thr202/Tyr204) in NCI-H358 (KRAS G12C mutation); assay: ERK phosphorylation assay 1 (AlphaLISA SureFire Ultra p-ERK1/2); details: Homo sapiens, NCI-H358, read-out: IC50 H358 pERK
Method: ERK Phosphorylation Assay
Materials Used for the Assay:
as §1
The cells are incubated for 1 h at room temperature and then incubated overnight in an incubator at 37° C. and 5% CO2 in a humidified atmosphere. 60 nL compound solution (10 mM DMSO stock solution) is then added using a Labcyte Echo 550 device. […] After 20 minutes of incubation at room temperature with shaking, 6 μL of each lysate sample is transferred to a 384-well Proxiplate and analyzed for pERK (Thr202/Tyr204) with the AlphaLISA SureFire Ultra pERK1/2 (Thr202/Tyr204) Assay Kit. 3 μL Acceptor Mix and 3 μL Donor Mix are added under subdued light and incubated for 2 h at room temperature in the dark, before the signal is measured on a PerkinElmer Envision HTS Multilabel Reader. The raw data were imported into and analyzed with the Boehringer Ingelheim proprietary software MegaLab (curve fitting based on the program PRISM, GraphPad Inc.).

T1 sequence (P01116 1-169 isoform P01116-2 G12C/C51S/C80L/C118S): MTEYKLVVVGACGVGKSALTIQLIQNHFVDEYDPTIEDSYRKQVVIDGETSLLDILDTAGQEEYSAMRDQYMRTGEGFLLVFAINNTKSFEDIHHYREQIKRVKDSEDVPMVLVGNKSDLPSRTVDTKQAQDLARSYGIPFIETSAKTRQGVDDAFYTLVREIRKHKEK
KRASG12-dependent Ba/F3 cells, sequence (P01116 whole entry G12C): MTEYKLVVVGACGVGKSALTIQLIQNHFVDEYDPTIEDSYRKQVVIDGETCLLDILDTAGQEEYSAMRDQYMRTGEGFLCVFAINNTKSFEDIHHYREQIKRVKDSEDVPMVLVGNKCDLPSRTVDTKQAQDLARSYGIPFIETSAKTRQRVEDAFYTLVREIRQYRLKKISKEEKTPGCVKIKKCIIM

SMILES	IC50 ([1]; Table 36)	IC50 [2]	GI50 [3]	IC50 ([1]; Table 37)	IC50 [4]	IC50 ([1]; Table 39)	IC50 ([1]; Table 38)
C=CC(=O)N1CCN(c2cc(-c3noc([C@@]4(C)CCCc5sc(N)c(C#N)c54)n3)nc(N3CC[C@H](O)[C@@H]3C)n2)CC1 [Ia-75]	180 nM	553 nM	–	–	–	–	–
C=CC(=O)N1CCN(c2cc(-c3noc([C@@]4(C)CCCc5sc(N)c(C#N)c54)n3)nc(O[C@@H](C)[C@@H]3CCCN3C)n2)C2CCCC21 (stereo partly shown) [Ia-60]	1.7 nM	2.8 nM	5.9 nM	–	–	–	–
C=CC(=O)N1CCC(Oc2cc(-c3noc(C4(C)CCCc5sc(N)c(C#N)c54)n3)nc(N3CCC4(CCN(C)CC4)CC3)c2)CC1 (stereo not shown) [Ia-78]	155 nM	458 nM	702 nM	–	–	–	–
C=CC(=O)N1CCN(c2cc(-c3noc([C@@]4(C)CCCc5sc(N)c(C#N)c54)n3)nc(O[C@@H](CC)[C@@H]3CCCN3C)n2)CC1 [Ia-138]	2 nM	7.8 nM	–	–	–	–	–
C=CC(=O)N1CCN(c2cc(-c3noc([C@@]4(C)CCCc5sc(N)c(C#N)c54)n3)nc(OC3CCCC34CCCN4C)n2)CC1 (stereo partly shown) [Ia-49]	4 nM	10.4 nM	26 nM	–	–	–	–
C=CC(=O)N1C2CCC1CN(c1cc(-c3noc([C@@]4(C)CCCc5sc(N)c(C#N)c54)n3)nc(O[C@@H](C)[C@@H]3CCCN3C)n1)C2 [Ia-59]	3 nM	5.5 nM	32.5 nM	–	–	–	–
C=CC(=O)N1CCN(c2cc(-c3noc([C@@]4(C)CCCc5sc(N)c(C#N)c54)n3)nc(O[C@@H](C)[C@@H]3CCCN3C)n2)C[C@H]1C [Ia-63]	2.6 nM	10.9 nM	15 nM	–	–	–	–
C/C=C/C(=O)N1CCN(c2cc(-c3noc([C@@]4(C)CCCc5sc(N)c(C#N)c54)n3)nc(O[C@@H](C)[C@@H]3CCCN3C)n2)CC12CC2 [Ia-163]	–	81.3 nM	431 nM	22 nM	–	–	–
C[C@H](Oc1nc(-c2noc([C@@]3(C)CCCc4sc(N)c(C#N)c43)n2)cc(N2CCN(C(=O)/C=C/CN3CCOCC3)CC2)n1)[C@@H]1CCCN1C [Ia-158]	–	103 nM	467 nM	4 nM	–	–	–
C=CC(=O)N1CCN(c2cc(-c3noc([C@@]4(C)CCCc5sc(N)c(C#N)c54)n3)nc(N3CCCN(CCOC)C[C@@H]3C)n2)CC1 [Ia-129]	6 nM	–	22.5 nM	–	6.4 nM	–	–
C=CC(=O)N1CCN(c2cc(-c3noc([C@@]4(C)CCCc5sc(N)c(C#N)c54)n3)nc(O[C@@H](C)[C@@H]3CCCN3C)n2)C(C)C1C (stereo partly shown) [Ia-53]	1.8 nM	3.1 nM	4.3 nM	–	–	–	–
C=CC(=O)N1CCN(c2cc(-c3noc([C@@]4(C)CCCc5sc(N)c(C#N)c54)n3)nc(OC3CC4CCC(C3)N4C)n2)CC1 (stereo partly shown) [Ia-70]	49 nM	413 nM	–	–	–	–	–
C=CC(=O)N1CCN(c2cc(-c3noc([C@@]4(C)CCCc5sc(N)c(C#N)c54)n3)nc(N3CCOC[C@@H]3C)n2)CC1 [Ia-73]	222 nM	138 nM	–	–	–	–	–
C[C@H](Oc1nc(-c2noc([C@@]3(C)CCCc4sc(N)c(C#N)c43)n2)cc(N2CCN(C/C=C/C(=O)N(C)C)CC2)n1)[C@@H]1CCCN1C [Ia-169]	–	1840 nM	7730 nM	–	–	40 nM	–
C=CC(=O)N1CCCC(Oc2cc(-c3noc([C@@]4(C)CCCc5sc(N)c(C#N)c54)n3)nc(N3CCCN(C)C[C@@H]3C)c2)C1 (stereo partly shown) [Ia-6]	311 nM	206 nM	–	–	–	–	–
C=CC(=O)N1CCN(c2cc(-c3noc([C@@]4(C)CCCc5sc(N)c(C#N)c54)n3)nc(O[C@H]3CCN(C)[C@H]3C)n2)CC1 [Ia-68]	27 nM	269 nM	–	–	–	–	–
CC#CC(=O)N1CCN(c2cc(-c3noc([C@@]4(C)CCCc5sc(N)c(C#N)c54)n3)nc(O[C@@H](C)[C@@H]3CCCN3C)n2)C2CCCC21 (stereo partly shown) [Ia-167]	–	77.2 nM	189 nM	–	–	–	15 nM
C=CC(=O)N1CCN(c2cc(-c3noc([C@@]4(C)CCCc5sc(N)c(C#N)c54)n3)nc(O[C@H]3C4CC5CN(C)[C@@H]3[C@H]5C4)n2)CC1 (stereo partly shown) [Ia-51]	19 nM	98.5 nM	–	–	–	–	–

SMILES	IC50 ([1]; Table 36)	IC50 [2]	GI50 [3]	IC50 ([1]; Table 37)	IC50 [4]	IC50 ([1]; Table 39)	IC50 ([1]; Table 38)
[2H]C([2H])([2H])N1CCN(c2cc(N3CCN(C(=O)C=C)CC3)cc(-c3noc(C4(C)CCCc5sc(N)c(C#N)c54)n3)n2)CC1 (stereo not shown) [Ia-128]	64 nM	–	681 nM	–	13.3 nM	–	–
C=CC(=O)N1CCN(c2cc(-c3noc([C@@]4(C)CCCc5sc(N)c(C#N)c54)n3)nc(O[C@@H](C)[C@@H]3CCCN3C)n2)CC12CC2 [Ia-57]	1.5 nM	0.9 nM	5.9 nM	–	–	–	–
C=CC(=O)N1CCN(c2cc(-c3noc([C@@]4(C)CCCc5sc(N)c(C#N)c54)n3)nc(N3CCN(C)CC3)c2)CC1 [Ia-116]	31 nM	–	208 nM	–	6.4 nM	–	–
C=CC(=O)N1CCN(c2cc(-c3noc(C4(C)CCc5sc(N)c(C#N)c54)n3)nc(O[C@@H](C)[C@@H]3CCCN3C)n2)CC1 (stereo partly shown) [Ia-134]	3 nM	5.6 nM	15.4 nM	–	–	–	–
C=CC(=O)N1CCN(c2cc(O[C@@H](C)[C@@H]3CCCN3C)nc(-c3noc([C@@]4(C)CCCc5sc(N)c(C#N)c54)n3)c2)CC12CCC2 [Ia-83]	2 nM	10.2 nM	7.4 nM	–	–	–	–
COC/C=C/C(=O)N1CCC(Oc2cc(O[C@@H](C)[C@@H]3CCCN3C)nc(-c3noc([C@@]4(C)CCCc5sc(N)c(C#N)c54)n3)c2)CC1 [Ia-159]	–	12.4 nM	16.2 nM	5 nM	–	–	–
C=CC(=O)N1CC(Oc2cc(O[C@@H](C)[C@@H]3CCCN3C)nc(-c3noc([C@@]4(C)CCCc5sc(N)c(C#N)c54)n3)c2)C1 [Ia-3]	1.2 nM	0.5 nM	0.3 nM	–	–	–	–
C=CC(=O)N1CCN(c2cc(-c3noc(C4(C)CCCc5sc(N)c(C#N)c54)n3)nc(N3CCN(C)C[C@@H]3CC)c2)CC1 (stereo partly shown) [Ia-15]	53 nM	–	219 nM	–	7.3 nM	–	–
C=CC(=O)N1CCC(Oc2cc(-c3noc([C@@]4(C)CCCc5sc(N)c(C#N)c54)n3)nc(N3CCN(C)C[C@@H]3C)c2)CC1 [Ia-79]	4 nM	18.7 nM	7.7 nM	–	–	–	–
C=CC(=O)N1CCN(c2cc(-c3noc([C@@]4(C)CCCc5sc(N)c(C#N)c54)n3)nc(N3CCC4(CC(O)C4)C3)n2)CC1 (stereo partly shown) [Ia-76]	391 nM	1000 nM	–	–	–	–	–
C=CC(=O)N1CCN(c2cc(-c3noc(C4(C)CCCc5sc(N)c(C#N)c54)n3)nc(N3CCCN(CCCOC)C[C@@H]3C)c2)CC1 (stereo partly shown) [Ia-19]	5 nM	–	25.6 nM	–	6.2 nM	–	–
C=CC(=O)N1CCN(c2cc(-c3noc(C4(C)CCCc5sc(N)c(C#N)c54)n3)nc(N3CCC4(CCN(C)CC4)CC3)c2)CC1 (stereo not shown) [Ia-34]	259 nM	–	4380 nM	–	282 nM	–	–
C=CC(=O)N1CCN(c2cc(-c3noc([C@@]4(C)CCCc5sc(N)c(C#N)c54)n3)nc(OC(C)CN3CCN(C)CC3)n2)CC1 (stereo partly shown) [Ia-66]	9 nM	124 nM	–	–	–	–	–
C=CC(=O)N1CCC(Oc2cc(-c3noc(C4(C)CCCc5sc(N)c(C#N)c54)n3)nc(N3CCN(C)C[C@@H]3C)c2)CC1 (stereo partly shown) [Ia-114]	11 nM	–	12.6 nM	–	4.1 nM	–	–
C=CC(=O)N1CCN(c2cc(-c3noc([C@@]4(C)CCCc5sc(N)c(C#N)c54)n3)nc(N3CCCN(CCOC)C[C@@H]3C)c2)CC1 [Ia-130]	7 nM	–	37.4 nM	–	16.6 nM	–	–
C=CC(=O)N1CCN(c2cc(-c3noc([C@@]4(C)CCCc5sc(N)c(C#N)c54)n3)nc(OC3CC4(CCN(C)C4)C3)n2)CC1 (stereo partly shown) [Ia-69]	23 nM	298 nM	–	–	–	–	–
C=CC(=O)N1CCN(c2cc(-c3noc([C@@]4(C)CCCc5sc(N)c(C#N)c54)n3)nc(OC3(CN4CCCC4)CC3)n2)CC1 [Ia-67]	15 nM	177 nM	–	–	–	–	–
C=CC(=O)N1CCN(c2cc(O[C@@H]3CCN(C)C3)nc(-c3noc([C@@]4(C)CCCc5sc(N)c(C#N)c54)n3)c2)CC1 [Ia-127]	60 nM	–	1430 nM	–	22.1 nM	–	–
